Test results: US20060241108A1, “Substituted phenoxazines and acridones as inhibitors of AKT” (St. Jude Children's Research Hospital, priority 2005, published 2006)

How the values were obtained:
Assay type in all cases: cell-based, human
AKT = assay: Inhibition of IGF-I stimulated AKT phosphorylation (Ser473) in Rh1 cells, Western blot; details: 5 μM, 1 hour, serum starved Rh1 cells, IGF-I 10 ng/ml 10 minutes; average of two experiments
Description: Cell lines and growth conditions. The human cell lines Rh1, Rh18, and Rh30 (ATCC Deposit # CRL 2061) have been described, e.g., by Hazelton et al. Cancer Res 1987;47:4501-4507 and Hosoi et al. Cancer Res. 1999;59:886-894. Rh1, Rh18 and Rh30 cells can each be grown in antibiotic free RPMI-1640 medium (available from BioWhittaker, Walkersville, Md.), supplemented with 10% fetal bovine serum (available from HyClone Laboratories, Logan, Utah) and 2 mM L-glutamine (available from BioWhittaker, Walkersville, Md.) at 37° C. in an atmosphere of 5% CO2. For serum free experiments, cells can be cultured in modified N2E (MN2E) medium (DMEM/F-12, 1:1 mixture) (Sigma, St. Louis, Mo.) supplemented with 1 μg/ml human holo transferrin, 30 nM sodium selenite, 20 nM progesterone, 100 μM putrescine, 30 nM vitamin E phosphate, and 50 μM ethanolamine. Cells in MN2E medium containing 5 μg/ml bovine fibronectin (available from Sigma, St. Louis, Mo.) are preferably plated, and allowed to attach overnight at 37° C. in a humidified, 5% CO2 atmosphere.
(§1) Cellular screening for inhibitors. Rh1, Rh18 and Rh30 cells can each be seeded at a density of 4×10^6/10-cm plate in serum-free medium for overnight attachment. The cells can then be exposed to 0.1% DMSO or to a test compound (for example, a phenoxazine or acridone compound) for one hour, then stimulated with Insulin-like growth factor-I (IGF-I) (10 ng/ml) for 10 minutes.
(§2) Western blot analysis. Cells are rapidly washed with ice-cold phosphate-buffered saline (PBS), placed on ice, and lysed in mammalian protein extraction reagent (M-PER; available from Pierce, Rockford, Ill.) containing one Complete™ mini protease inhibitor tablet (available from Boehringer Mannheim, Mannheim, Germany), 1 mM phenylmethylsulfonyl fluoride, 1 mM Na3VO4 and 1 mM NaF. Cellular debris is pelleted by centrifugation at 17,500×g for 10 minutes at 4° C. The protein concentration of the supernatants is measured by the bicinchoninic acid assay (e.g., using the BCA™ Protein Assay Kit, Pierce, Rockford, Ill., catalog number 23225 or 23227) using bovine serum albumin as the standard.
For the analysis of AKT, ERK-1/2, mTOR, p70S6 kinase, ribosomal protein S6 (rpS6 or S6), and glycogen synthase kinase 3 (GSK-3), equivalent amounts of protein can be separated on a 12% SDS-polyacrylamide gel (available from BioRad, Hercules, Calif.) by electrophoresis and subsequently transferred to a nitrocellulose membrane (also available from BioRad). After a 1 hour incubation in 1×TBS containing 0.05% Tween 20 and 5% blocking reagent (skim milk) (available from Upstate Biotechnology, Lake Placid, N.Y.) at room temperature, the wet nitrocellulose membranes are incubated with appropriate antibodies (available from Cell Signaling Technology, Beverly, Mass.): rabbit polyclonal antiserum specific for the phosphorylated Ser473 or Thr308 of AKT (dilution 1:1000); rabbit polyclonal antiserum specific for phosphorylated Thr202/Tyr204 of ERK-1/2 (dilution 1:1000); rabbit polyclonal antiserum specific for phosphorylated Ser2448 or Ser2481 of mTOR (dilution 1:1000); rabbit polyclonal antiserum specific for phosphorylated Thr389 of p70S6 kinase (dilution 1:4000); rabbit polyclonal antiserum specific for phosphorylated Ser235/236 of rpS6 (dilution 1:1000); or rabbit polyclonal antiserum specific for phosphorylated Ser21/9 of GSK-3α/β (dilution 1:1000). Horseradish peroxidase-conjugated goat anti-rabbit IgG antibody (dilution 1:10,000) can be used as the secondary antibody. Immunoreactive protein can be visualized using Renaissance chemiluminescence reagent (available from Life Science Products Inc., Boston, Mass.).
For these assays, Rh1 cells are seeded in serum-free medium for overnight attachment. The serum starved Rh1 cells are then exposed to 1-5 μM of a compound in Table I for 1 hour before stimulating with IGF-I (10 ng/ml) for 10 minutes. […]

AKT, mTOR and rpS6 [1] = assay: IGF-1-induced phosphorylation of AKT, mTOR and rpS6 in serum-starved Rh18 cells
Description: as §1
as §2, with “standard. […]” for “standard.”

AKT, mTOR and rpS6 [2] = assay: IGF-1-induced phosphorylation of AKT, mTOR and rpS6 in serum-starved Rh30 cells
Description: as §1
as §2, with “standard. […]” for “standard.”

[3] = system: Rh1, Rh18 and/or Rh30 cells; assay: Determination of apoptosis, cell line not specified for the result
Source text: Determination of apoptosis.
Similar experiments can be performed using compounds that are relatively poor inhibitors of AKT in vitro but, preferably, are chemically similar to the phenoxazine or other compounds tested that are effective inhibitors of AKT. For example, the apoptosis of cells in response to the phenoxazine compound 12B or 20B, which are relatively poor inhibitors of AKT in vitro, can be compared to apoptosis of cells in response to the chemically similar compounds 10B and/or 15B, which are effective AKT inhibitors. In this way, a skilled practitioner can evaluate whether apoptosis observed in response to an effective AKT inhibitor (e.g., apoptosis observed in response to compound 10B or 15B) is due to a general toxic effect rather than AKT inhibition.

## 10-(N-pyrrolidinoacetyl)-2-chlorophenoxazine [Compound 20B]
AKT
  Inhibition (phosphorylation of AKT at Ser 473): −−− (−−− <25% inhibition)
AKT, mTOR and rpS6 [1]
  block of IGF-1-induced phosphorylation of AKT, mTOR and rpS6: possible exception
AKT, mTOR and rpS6 [2]
  block of IGF-1-induced phosphorylation of AKT, mTOR and rpS6: possible exception
[3]
  induction of apoptosis: neither the compound 12B or 20B
